In PMC11576293, “New series of 4,6-diaryl pyrimidines: facile synthesis and antiproliferative activity as dual EGFR/VEGFR-2 inhibitors” (Frontiers in Chemistry, 2024) one finds inhibition data, which are given here for one compound.

One assay relates to U251. Nature of the assay: NCI-60 single-dose screen. Type of assay: cell-based. Particulars: Homo sapiens, U-251, single dose 10 µM, '-' = no inhibition, read-out: % Growth Inhibition. The method, boiled down: (§1)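 Single concentration (10 μM) per compound, assayed by the NCI DTP against its 60-line panel covering leukemia, lung, colon, CNS, melanoma, ovarian, renal, prostate and breast cancers.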
Usually inhibition stands for the drop in the measured response relative to a control, in per cent. For the compound `COc1ccc(-c2cc(-c3ccc(Cl)cc3)nc(SCc3ccccc3)n2)cc1` [Compound 14, 2-(Benzylthio)-4-(4-chlorophenyl)-6-(4-methoxyphenyl)pyrimidine], the inhibition at 10 µM is less than 0%.

Another assay concerns TK-10. Nature of the assay: NCI-60 single-dose screen. Type of assay: cell-based. The conditions noted are these: Homo sapiens, single dose 10 µM, '-' = no inhibition, read-out: % Growth Inhibition. The method, boiled down: as §1
On to `COc1ccc(-c2cc(-c3ccc(Cl)cc3)nc(SCc3ccccc3)n2)cc1` [Compound 14, 2-(Benzylthio)-4-(4-chlorophenyl)-6-(4-methoxyphenyl)pyrimidine], for which the inhibition at 10 µM is less than 0%.

Another assay concerns MCF7. Nature of the assay: NCI-60 single-dose screen. Particulars: Homo sapiens, single dose 10 µM, '-' = no inhibition, read-out: % Growth Inhibition. Type of assay: cell-based. In outline:
as §1
With `COc1ccc(-c2cc(-c3ccc(Cl)cc3)nc(SCc3ccccc3)n2)cc1` [Compound 14, 2-(Benzylthio)-4-(4-chlorophenyl)-6-(4-methoxyphenyl)pyrimidine], the inhibition at 10 µM is less than 0%.

The test system of a further assay is HT29. Nature of the assay: NCI-60 single-dose screen. The class given is cell-based. The conditions noted are these: Homo sapiens, HT-29, single dose 10 µM, '-' = no inhibition, read-out: % Growth Inhibition. The method, boiled down: as §1
For `COc1ccc(-c2cc(-c3ccc(Cl)cc3)nc(SCc3ccccc3)n2)cc1` [Compound 14, 2-(Benzylthio)-4-(4-chlorophenyl)-6-(4-methoxyphenyl)pyrimidine], the inhibition at 10 µM is 8.96%.

The test system of a further assay is BT-549. Nature of the assay: NCI-60 single-dose screen. Type of assay: cell-based. The conditions noted are these: Homo sapiens, single dose 10 µM, '-' = no inhibition, read-out: % Growth Inhibition. In outline:
as §1
On to `COc1ccc(-c2cc(-c3ccc(Cl)cc3)nc(SCc3ccccc3)n2)cc1` [Compound 14, 2-(Benzylthio)-4-(4-chlorophenyl)-6-(4-methoxyphenyl)pyrimidine], for which the inhibition at 10 µM was less than 0%.

A further assay concerns OVCAR-8. Nature of the assay: NCI-60 single-dose screen. Particulars: Homo sapiens, single dose 10 µM, '-' = no inhibition, read-out: % Growth Inhibition. The class given is cell-based. In outline:
as §1
Turning to `COc1ccc(-c2cc(-c3ccc(Cl)cc3)nc(SCc3ccccc3)n2)cc1` [Compound 14, 2-(Benzylthio)-4-(4-chlorophenyl)-6-(4-methoxyphenyl)pyrimidine], the inhibition at 10 µM is less than 0%.

The test system of the next assay is NCI-H460. Nature of the assay: NCI-60 single-dose screen. Type of assay: cell-based. Particulars: Homo sapiens, single dose 10 µM, '-' = no inhibition, read-out: % Growth Inhibition. In outline:
as §1
Turning to `COc1ccc(-c2cc(-c3ccc(Cl)cc3)nc(SCc3ccccc3)n2)cc1` [Compound 14, 2-(Benzylthio)-4-(4-chlorophenyl)-6-(4-methoxyphenyl)pyrimidine], the inhibition at 10 µM was less than 0%.

A further assay has as its system HL-60(TB). Nature of the assay: NCI-60 single-dose screen. Particulars: Homo sapiens, single dose 10 µM, '-' = no inhibition, read-out: % Growth Inhibition. Type of assay: cell-based.
As to `COc1ccc(-c2cc(-c3ccc(Cl)cc3)nc(SCc3ccccc3)n2)cc1` [Compound 14, 2-(Benzylthio)-4-(4-chlorophenyl)-6-(4-methoxyphenyl)pyrimidine], the inhibition at 10 µM was found to be 18.1%.

In another assay the test system is PC-3. Nature of the assay: NCI-60 single-dose screen. The class given is cell-based. Particulars: Homo sapiens, single dose 10 µM, '-' = no inhibition, read-out: % Growth Inhibition. The method, boiled down: as §1
On to `COc1ccc(-c2cc(-c3ccc(Cl)cc3)nc(SCc3ccccc3)n2)cc1` [Compound 14, 2-(Benzylthio)-4-(4-chlorophenyl)-6-(4-methoxyphenyl)pyrimidine], for which the inhibition at 10 µM stood at 20.7%.

Another assay has as its system SNB-75. Nature of the assay: NCI-60 single-dose screen. Type of assay: cell-based. The conditions noted are these: Homo sapiens, single dose 10 µM, '-' = no inhibition, read-out: % Growth Inhibition. In outline: as §1
Consider `COc1ccc(-c2cc(-c3ccc(Cl)cc3)nc(SCc3ccccc3)n2)cc1` [Compound 14, 2-(Benzylthio)-4-(4-chlorophenyl)-6-(4-methoxyphenyl)pyrimidine], for which the inhibition at 10 µM is less than 0%.

For another assay, the system named is UACC-62. Nature of the assay: NCI-60 single-dose screen. Type of assay: cell-based. The conditions noted are these: Homo sapiens, single dose 10 µM, '-' = no inhibition, read-out: % Growth Inhibition. The method, boiled down: as §1
On to `COc1ccc(-c2cc(-c3ccc(Cl)cc3)nc(SCc3ccccc3)n2)cc1` [Compound 14, 2-(Benzylthio)-4-(4-chlorophenyl)-6-(4-methoxyphenyl)pyrimidine], for which the inhibition at 10 µM was less than 0%.

For the next assay, the system named is MALME-3M. Nature of the assay: NCI-60 single-dose screen. Particulars: Homo sapiens, single dose 10 µM, '-' = no inhibition, read-out: % Growth Inhibition. Type of assay: cell-based. The method, boiled down:
as §1
Take `COc1ccc(-c2cc(-c3ccc(Cl)cc3)nc(SCc3ccccc3)n2)cc1` [Compound 14, 2-(Benzylthio)-4-(4-chlorophenyl)-6-(4-methoxyphenyl)pyrimidine]: the inhibition at 10 µM is less than 0%.

The next assay has as its system HCC-2998. Nature of the assay: NCI-60 single-dose screen. The class given is cell-based. Particulars: Homo sapiens, single dose 10 µM, '-' = no inhibition, read-out: % Growth Inhibition. The method, boiled down: as §1
Regarding `COc1ccc(-c2cc(-c3ccc(Cl)cc3)nc(SCc3ccccc3)n2)cc1` [Compound 14, 2-(Benzylthio)-4-(4-chlorophenyl)-6-(4-methoxyphenyl)pyrimidine], the inhibition at 10 µM is less than 0%.

Another assay deals with NCI-H23. Nature of the assay: NCI-60 single-dose screen. Particulars: Homo sapiens, single dose 10 µM, '-' = no inhibition, read-out: % Growth Inhibition. Type of assay: cell-based. In outline:
as §1
As to `COc1ccc(-c2cc(-c3ccc(Cl)cc3)nc(SCc3ccccc3)n2)cc1` [Compound 14, 2-(Benzylthio)-4-(4-chlorophenyl)-6-(4-methoxyphenyl)pyrimidine], the inhibition at 10 µM is less than 0%.

A further assay concerns RXF 393. Nature of the assay: NCI-60 single-dose screen. Type of assay: cell-based. Particulars: Homo sapiens, single dose 10 µM, '-' = no inhibition, read-out: % Growth Inhibition. In outline:
as §1
For the compound `COc1ccc(-c2cc(-c3ccc(Cl)cc3)nc(SCc3ccccc3)n2)cc1` [Compound 14, 2-(Benzylthio)-4-(4-chlorophenyl)-6-(4-methoxyphenyl)pyrimidine], the inhibition at 10 µM was less than 0%.

Another assay has as its system SK-MEL-5. Nature of the assay: NCI-60 single-dose screen. Type of assay: cell-based. Particulars: Homo sapiens, single dose 10 µM, '-' = no inhibition, read-out: % Growth Inhibition. The method, boiled down:
as §1
For the compound `COc1ccc(-c2cc(-c3ccc(Cl)cc3)nc(SCc3ccccc3)n2)cc1` [Compound 14, 2-(Benzylthio)-4-(4-chlorophenyl)-6-(4-methoxyphenyl)pyrimidine], the inhibition at 10 µM turned out to be 2.06%.

For another assay, the system named is SK-MEL-28. Nature of the assay: NCI-60 single-dose screen. The conditions noted are these: Homo sapiens, single dose 10 µM, '-' = no inhibition, read-out: % Growth Inhibition. Type of assay: cell-based. In outline:
as §1
As to `COc1ccc(-c2cc(-c3ccc(Cl)cc3)nc(SCc3ccccc3)n2)cc1` [Compound 14, 2-(Benzylthio)-4-(4-chlorophenyl)-6-(4-methoxyphenyl)pyrimidine], the inhibition at 10 µM is less than 0%.

For another assay, the system named is SNB-19. Nature of the assay: NCI-60 single-dose screen. Type of assay: cell-based. The conditions noted are these: Homo sapiens, single dose 10 µM, '-' = no inhibition, read-out: % Growth Inhibition. In outline:
as §1
For `COc1ccc(-c2cc(-c3ccc(Cl)cc3)nc(SCc3ccccc3)n2)cc1` [Compound 14, 2-(Benzylthio)-4-(4-chlorophenyl)-6-(4-methoxyphenyl)pyrimidine], the inhibition at 10 µM was less than 0%.

Another assay has as its system M14. Nature of the assay: NCI-60 single-dose screen. The class given is cell-based. Particulars: Homo sapiens, single dose 10 µM, '-' = no inhibition, read-out: % Growth Inhibition. In outline: as §1
With `COc1ccc(-c2cc(-c3ccc(Cl)cc3)nc(SCc3ccccc3)n2)cc1` [Compound 14, 2-(Benzylthio)-4-(4-chlorophenyl)-6-(4-methoxyphenyl)pyrimidine], the inhibition at 10 µM is less than 0%.

The next assay has as its system UO-31. Nature of the assay: NCI-60 single-dose screen. The class given is cell-based. The conditions noted are these: Homo sapiens, single dose 10 µM, '-' = no inhibition, read-out: % Growth Inhibition. In outline: as §1
As to `COc1ccc(-c2cc(-c3ccc(Cl)cc3)nc(SCc3ccccc3)n2)cc1` [Compound 14, 2-(Benzylthio)-4-(4-chlorophenyl)-6-(4-methoxyphenyl)pyrimidine], the inhibition at 10 µM was less than 0%.

In the next assay the test system is COLO 205. Nature of the assay: NCI-60 single-dose screen. The class given is cell-based. Particulars: Homo sapiens, single dose 10 µM, '-' = no inhibition, read-out: % Growth Inhibition. The method, boiled down: as §1
`COc1ccc(-c2cc(-c3ccc(Cl)cc3)nc(SCc3ccccc3)n2)cc1` [Compound 14, 2-(Benzylthio)-4-(4-chlorophenyl)-6-(4-methoxyphenyl)pyrimidine]: the inhibition at 10 µM was 10.3%.

A further assay deals with NCI-H322M. Nature of the assay: NCI-60 single-dose screen. The class given is cell-based. The conditions noted are these: Homo sapiens, single dose 10 µM, '-' = no inhibition, read-out: % Growth Inhibition. In outline: as §1
Consider `COc1ccc(-c2cc(-c3ccc(Cl)cc3)nc(SCc3ccccc3)n2)cc1` [Compound 14, 2-(Benzylthio)-4-(4-chlorophenyl)-6-(4-methoxyphenyl)pyrimidine], for which the inhibition at 10 µM is less than 0%.

The next assay relates to SK-MEL-2. Nature of the assay: NCI-60 single-dose screen. Type of assay: cell-based. The conditions noted are these: Homo sapiens, single dose 10 µM, '-' = no inhibition, read-out: % Growth Inhibition. The method, boiled down:
as §1
Regarding `COc1ccc(-c2cc(-c3ccc(Cl)cc3)nc(SCc3ccccc3)n2)cc1` [Compound 14, 2-(Benzylthio)-4-(4-chlorophenyl)-6-(4-methoxyphenyl)pyrimidine], the inhibition at 10 µM was 7.79%.
